Test system: D. suzukii
Test: Infestation of pre-odour-treated blueberries, emergence of adult flies
Type: in vivo, Drosophila suzukii
Settings: 48 hours with adult flies, counted after 14 days
Experimental: Adult mixed female and male flies 20 (in the experiments below, D. suzukii flies) are placed in a cylindrical cage 60a with mesh roofing 80 for ventilation. Fruits 40 (in the experiments below 8 blueberries were used) are placed into a petri dish bottom 60b at the bottom of the cage 60a.
The blueberries were treated with (E)-2-hexenal and then exposed to flies. The impact of 1% vol, 5% vol and 10% vol aqueous emulsions of (E)-2-hexenal (obtained by dissolving the VOC in deionized water (DI) containing 1% (v/v) Tween 20 hydrophilic emulsifier) on egg-laying and the survival and development of larvae in pre-treated blueberries were compared to water-treated controls. In particular, the number of flies emerging after 14 days at ambient temperature was counted, following 48 hours of incubation of the treated blueberries with adult flies. The results of this analysis are shown on FIG. 6B. […] Significance was assessed by one-way ANOVA followed by Bonferroni correction at p≤0.05 and post-hoc two-sample t-test.
Eight ripe blueberries were dipped into 10 mL of a 1%, 5% or 10% aqueous emulsion of (E)-2-hexenal or deionised water as a control and left to air dry. They were then placed in a Petri dish at the bottom of a cylindrical plastic fly cage (∅=5.5 cm, h=7.5 cm), together with 20 mixed (10 females, 10 males) adult D. suzukii flies. The flies were exposed to the odour-treated blueberries during 48 hours at ambient room temperature conditions, after which they were removed and discarded. The blueberries were then transferred into an empty fly vial with cotton lids, and after 14 days at ambient room temperature conditions, the emergence of adult D. suzukii was examined by counting the number of flies. The assay was repeated 5 times.

With `CCC/C=C/C=O` [(E)-2-hexenal] the “fly emergence from pre-treated blueberries versus untreated” value (1% aqueous emulsion) was “not significantly different from untreated berries”, the “fly emergence from pre-treated blueberries versus untreated” value (5% aqueous emulsion) was “significant reduction of fly emergence” and the “fly emergence from pre-treated blueberries versus untreated” value (10% aqueous emulsion) was “significant reduction of fly emergence”.

From patent US11779015B2, “Pesticide compositions” (FUNDACIÓ CENTRE DE REGULACIÓ GENÒMICA, priority 2017, dated 2023)
